From patent US12428626B2 (priority 2018, dated 2025)
Residues, ends and D or L forms follow the SMILES beside them. *: point of attachment. Cbz = O=C(OCc1ccccc1)*

Test system: WT MYXV
Assay type: cell-based, myxoma virus

Compound: CC(C)C[C@@H](C=O)NC(=O)[C@H](CC(C)C)NC(=O)[C@H](CC(C)C)NC(=O)OCc1ccccc1 [MG132, Z-Leu-Leu-Leu-al] (Cbz-Leu-Leu-Leu-aldehyde)
- improved infection in SAMD9-null cells: did not affect improved infection

Compound: cytosine beta-D-arabinofuranoside [Cytosine arabinoside]
- luciferase activity emitted from infection in both cell lines: did not affect luciferase activity

Compound: Actinomycin D
- elevated luciferase activity resulting from infecting SAMD9-null cells: did not eliminate the elevated luciferase activity
- overall luciferase activity compared with untreated corresponding infection: did reduce the overall luciferase activity
